Measurements reported in ChEMBL document CHEMBL3044631, “Synthesis of 2-[4,5-dimethyl-1-(phenylamino)-1H-imidazol-2-ylthio]-N-(thiazole-2-yl)acetamide derivatives and their anticancer activities” (2013).

Tests used:
Type in all cases: functional
A549 = assay: Anticancer activity against Homo sapiens (human) A549/ATCC cells assessed as cell growth promotion at 10 uM after 48 hr by SRB assay
MCF7 = assay: Anticancer activity against Homo sapiens (human) MCF7 cells assessed as cell growth promotion at 10 uM after 48 hr by SRB assay
MDA-MB-435 = assay: Anticancer activity against Homo sapiens (human) MDA-MB-435 cells assessed as cell growth promotion at 10 uM after 48 hr by SRB assay
EKVX = assay: Anticancer activity against Homo sapiens (human) EKVX cells assessed as cell growth promotion at 10 uM after 48 hr by SRB assay
Hs-578T = assay: Anticancer activity against Homo sapiens (human) Hs 578T cells assessed as cell growth promotion at 10 uM after 48 hr by SRB assay
PC-3 = assay: Anticancer activity against Homo sapiens (human) PC3 cells assessed as cell growth promotion at 10 uM after 48 hr by SRB assay
UACC-257 = assay: Anticancer activity against Homo sapiens (human) UACC257 cells assessed as cell growth promotion at 10 uM after 48 hr by SRB assay
SF-268 = assay: Anticancer activity against Homo sapiens (human) SF268 cells assessed as cell growth promotion at 10 uM after 48 hr by SRB assay
MDA-MB-468 = assay: Anticancer activity against Homo sapiens (human) MDA-MB-468 cells assessed as cell growth promotion at 10 uM after 48 hr by SRB assay
CAKI-1 = assay: Anticancer activity against Homo sapiens (human) CAKI-1 cells assessed as cell growth promotion at 10 uM after 48 hr by SRB assay
SK-MEL-5 = assay: Anticancer activity against Homo sapiens (human) SK-MEL-5 cells assessed as cell growth promotion at 10 uM after 48 hr by SRB assay
Malme-3M = assay: Anticancer activity against Homo sapiens (human) MALME-3M cells assessed as cell growth promotion at 10 uM after 48 hr by SRB assay
MOLT-4 = assay: Anticancer activity against Homo sapiens (human) MOLT4 cells assessed as cell growth promotion at 10 uM after 48 hr by SRB assay
HL-60(TB) = assay: Anticancer activity against Homo sapiens (human) HL-60(TB) cells assessed as cell growth promotion at 10 uM after 48 hr by SRB assay
HCT-116 = assay: Anticancer activity against Homo sapiens (human) HCT116 cells assessed as cell growth promotion at 10 uM after 48 hr by SRB assay
HOP-92 = assay: Anticancer activity against Homo sapiens (human) HOP92 cells assessed as cell growth promotion at 10 uM after 48 hr by SRB assay
SN12C = assay: Anticancer activity against Homo sapiens (human) SN12C cells assessed as cell growth promotion at 10 uM after 48 hr by SRB assay
TK-10 = assay: Anticancer activity against Homo sapiens (human) TK10 cells assessed as cell growth promotion at 10 uM after 48 hr by SRB assay
SK-OV-3 = assay: Anticancer activity against Homo sapiens (human) SKOV3 cells assessed as cell growth promotion at 10 uM after 48 hr by SRB assay
OVCAR-4 = assay: Anticancer activity against Homo sapiens (human) OVCAR4 cells assessed as cell growth promotion at 10 uM after 48 hr by SRB assay
SF-295 = assay: Anticancer activity against Homo sapiens (human) SF295 cells assessed as cell growth promotion at 10 uM after 48 hr by SRB assay
NCI-H522 = assay: Anticancer activity against Homo sapiens (human) NCI-H522 cells assessed as cell growth promotion at 10 uM after 48 hr by SRB assay
HOP-62 = assay: Anticancer activity against Homo sapiens (human) HOP62 cells assessed as cell growth promotion at 10 uM after 48 hr by SRB assay
786-0 = assay: Anticancer activity against Homo sapiens (human) 786-0 cells assessed as cell growth promotion at 10 uM after 48 hr by SRB assay
KM12 = assay: Anticancer activity against Homo sapiens (human) KM12 cells assessed as cell growth promotion at 10 uM after 48 hr by SRB assay
NCI/ADR-RES = assay: Anticancer activity against Homo sapiens (human) NCI/ADR-RES cells assessed as cell growth promotion at 10 uM after 48 hr by SRB assay
SF-539 = assay: Anticancer activity against Homo sapiens (human) SF539 cells assessed as cell growth promotion at 10 uM after 48 hr by SRB assay
DU-145 = assay: Anticancer activity against Homo sapiens (human) DU145 cells assessed as cell growth promotion at 10 uM after 48 hr by SRB assay
RPMI-8226 = assay: Anticancer activity against Homo sapiens (human) RPMI8226 cells assessed as cell growth promotion at 10 uM after 48 hr by SRB assay
NCI-H460 = assay: Anticancer activity against Homo sapiens (human) NCI-H460 cells assessed as cell growth promotion at 10 uM after 48 hr by SRB assay
K562 = assay: Anticancer activity against Homo sapiens (human) K562 cells assessed as cell growth promotion at 10 uM after 48 hr by SRB assay
ACHN = assay: Anticancer activity against Homo sapiens (human) ACHN cells assessed as cell growth promotion at 10 uM after 48 hr by SRB assay
HT-29 = assay: Anticancer activity against Homo sapiens (human) HT-29 cells assessed as cell growth promotion at 10 uM after 48 hr by SRB assay
OVCAR-3 = assay: Anticancer activity against Homo sapiens (human) OVCAR3 cells assessed as cell growth promotion at 10 uM after 48 hr by SRB assay
HCT-15 = assay: Anticancer activity against Homo sapiens (human) HCT15 cells assessed as cell growth promotion at 10 uM after 48 hr by SRB assay
UACC-62 = assay: Anticancer activity against Homo sapiens (human) UACC62 cells assessed as cell growth promotion at 10 uM after 48 hr by SRB assay
COLO 205 = assay: Anticancer activity against Homo sapiens (human) COLO205 cells assessed as cell growth promotion at 10 uM after 48 hr by SRB assay
SK-MEL-2 = assay: Anticancer activity against Homo sapiens (human) SK-MEL-2 cells assessed as cell growth promotion at 10 uM after 48 hr by SRB assay
HCC 2998 = assay: Anticancer activity against Homo sapiens (human) HCC2998 cells assessed as cell growth promotion at 10 uM after 48 hr by SRB assay
MDA-MB-231 = assay: Anticancer activity against Homo sapiens (human) MDA-MB-231/ATCC cells assessed as cell growth promotion at 10 uM after 48 hr by SRB assay

CCOC(=O)c1csc(NC(=O)CSc2nc(C)c(C)n2Nc2ccc(C)cc2)n1
Activity (A549): 82.13% | Activity (MCF7): 80.14% | Activity (MDA-MB-435): 78.21% | Activity (EKVX): 99.66% | Activity (Hs-578T): 139.32% | Activity (PC-3): 88.3% | Activity (UACC-257): 88.46% | Activity (SF-268): 102.22% | Activity (MDA-MB-468): 67.17% | Activity (CAKI-1): 80.52% | Activity (SK-MEL-5): 47.48% | Activity (Malme-3M): 110.81% | Activity (MOLT-4): 92.25% | Activity (HL-60(TB)): 77.24% | Activity (HCT-116): 68.84% | Activity (HOP-92): 44.51% | Activity (SN12C): 62.75% | Activity (TK-10): 77.84% | Activity (SK-OV-3): 90.71% | Activity (OVCAR-4): 74.76% | Activity (SF-295): 53.71% | Activity (NCI-H522): 76.3% | Activity (HOP-62): 63.23% | Activity (786-0): 83.82% | Activity (KM12): 108.43% | Activity (NCI/ADR-RES): 70.04% | Activity (SF-539): 73.62% | Activity (DU-145): 108.96% | Activity (RPMI-8226): 72.05% | Activity (NCI-H460): 109.11% | Activity (K562): 78.51% | Activity (ACHN): 76.52% | Activity (HT-29): 52.44% | Activity (OVCAR-3): 108.5% | Activity (HCT-15): 98.05% | Activity (UACC-62): 62.91% | Activity (COLO 205): 80.51% | Activity (SK-MEL-2): 93.46% | Activity (HCC 2998): 96.72% | Activity (MDA-MB-231): 62.5%

COc1ccc(Nn2c(SCC(=O)Nc3nccs3)nc(C)c2C)cc1
Activity (A549): 104.98% | Activity (MCF7): 102.31% | Activity (MDA-MB-435): 97.68% | Activity (EKVX): 108.98% | Activity (Hs-578T): 109.7% | Activity (PC-3): 103.43% | Activity (UACC-257): 108.29% | Activity (SF-268): 103.59% | Activity (MDA-MB-468): 94.85% | Activity (CAKI-1): 90.35% | Activity (SK-MEL-5): 102.75% | Activity (Malme-3M): 119.7% | Activity (MOLT-4): 100.89% | Activity (HL-60(TB)): 98.86% | Activity (HCT-116): 106.93% | Activity (HOP-92): 117.01% | Activity (SN12C): 98.23% | Activity (TK-10): 105.37% | Activity (SK-OV-3): 108.56% | Activity (OVCAR-4): 110.54% | Activity (SF-295): 91.49% | Activity (NCI-H522): 95.16% | Activity (HOP-62): 106.4% | Activity (786-0): 100.29% | Activity (KM12): 96.74% | Activity (NCI/ADR-RES): 92.35% | Activity (SF-539): 101.05% | Activity (DU-145): 112.49% | Activity (RPMI-8226): 102.22% | Activity (NCI-H460): 108.22% | Activity (K562): 99.68% | Activity (ACHN): 100.51% | Activity (HT-29): 102.36% | Activity (OVCAR-3): 113.42% | Activity (HCT-15): 100.06% | Activity (UACC-62): 95.78% | Activity (COLO 205): 107.27% | Activity (SK-MEL-2): 92.7% | Activity (HCC 2998): 110.49% | Activity (MDA-MB-231): 105.41%

Cc1nc(SCC(=O)Nc2nccs2)n(Nc2ccccc2)c1C
Activity (A549): 98.55% | Activity (MCF7): 98.76% | Activity (MDA-MB-435): 104.58% | Activity (EKVX): 115.74% | Activity (Hs-578T): 115.31% | Activity (PC-3): 93.56% | Activity (UACC-257): 94.83% | Activity (SF-268): 106.58% | Activity (MDA-MB-468): 105.55% | Activity (CAKI-1): 102.08% | Activity (SK-MEL-5): 94.75% | Activity (Malme-3M): 121.77% | Activity (MOLT-4): 108.49% | Activity (HL-60(TB)): 96.52% | Activity (HCT-116): 93.75% | Activity (HOP-92): 76.48% | Activity (SN12C): 94.4% | Activity (TK-10): 111.75% | Activity (SK-OV-3): 102.5% | Activity (OVCAR-4): 103.25% | Activity (SF-295): 86.6% | Activity (NCI-H522): 102.09% | Activity (HOP-62): 83.75% | Activity (786-0): 103.46% | Activity (KM12): 109.29% | Activity (NCI/ADR-RES): 96.1% | Activity (SF-539): 86.84% | Activity (DU-145): 116.36% | Activity (RPMI-8226): 100.95% | Activity (NCI-H460): 102.18% | Activity (K562): 101.35% | Activity (ACHN): 95.27% | Activity (HT-29): 99.8% | Activity (OVCAR-3): 116.22% | Activity (HCT-15): 97.16% | Activity (UACC-62): 94.24% | Activity (COLO 205): 117.71% | Activity (SK-MEL-2): 106.73% | Activity (HCC 2998): 101.96% | Activity (MDA-MB-231): 95.5%
